The record followed here is PubChem BioAssay (NCI).

Structures are written as SMILES. Where “and” joins values, the source holds several entries; their conditions need not be identical. Equal entries are not always repeated.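 In this assay, cells in 96-well plates receive the compound at five concentrations for 48 hours. Endpoints are linearly interpolated between the surrounding concentrations. GI50: concentration for 50% inhibition of growth. TGI: concentration producing complete growth inhibition.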

Common to all, as to experiment: growth of human tumour cells (NCI), 48 h
Test [1] has as its system HCC-2998 colon.
Test [2] deals with M14 melanoma.
Test [3] relates to A549 NSCLC.
The subject of test [4] is U251 CNS.
Test [5] concerns KM12 colon.
Test [6] has as its system UO-31 renal.
Test [7] deals with PC-3 prostate.
Test [8] concerns SF-268 CNS.
Test [9] relates to OVCAR-8 ovarian.
The subject of test [10] is NCI-H460 lung.

Take `CC(C)Cc1ccc(C(C)C(=O)NCc2ccc(Cn3c(=O)sn(CCCI)c3=O)cc2)cc1` (stereo not given): the GI50 in [1] was 1.75 µM; in test [2] it was 0.429 µM; in test [3] it was 1.39 µM; in test [4], 1.43 µM; in [5], 1.56 µM; in test [6] it was 0.407 µM. In addition, the GI50 in test [7] was 0.732 µM; in test [8], 1.46 µM; in test [9] it was 0.523 µM; in [10] it was 1.36 µM. For the same molecule, the TGI is 3.38 µM in test [1]; 1.34 µM in [2]; 3.12 µM in test [3]; 2.89 µM in test [4]; 3.25 µM in test [5]; 1.49 µM in [6]. The TGI in test [7] is 2.07 µM; in test [8] it was 2.95 µM; in test [9], 1.85 µM; in test [10], 3.08 µM.
Turning to `C=CC(=O)Nc1cccc(Oc2nc(Nc3ccc(N4CCN(C)CC4)cc3OC)ncc2Cl)c1`, the GI50 in test [1] was 1.72 µM; in test [2] it was 1.82 µM; in test [3] it was 1.46 µM; in [4], 1.49 µM; in test [5], 3.46 µM; in test [6], 1.03 µM. Moreover, the GI50 in [7] was 2.19 µM; in test [8], 2.37 µM; in test [9], 2.08 µM; in [10] it was 3.49 µM. Also, the TGI in test [1] was determined as 3.35 µM; in test [2], 3.47 µM; in test [3] it was 3.33 µM; in [4], 3.03 µM; in test [5], 11.2 µM; in [6], 2.32 µM. Besides, the TGI in test [7] is 7.03 µM; in test [8], 9.24 µM; in [9], 8.45 µM; in test [10], more than 34.4 µM.
With `O=C1c2cc(F)ccc2-c2c1c1ccc([N+](=O)[O-])cc1c(=O)n2CCCBr`, the GI50 in test [1] is 10.7 µM; in test [2], 13.3 µM; in [3] it was 25.7 µM; in [4], 9.87 µM; in test [5], 20.9 µM; in test [6], 13.9 µM. For the same molecule, the GI50 was 28.7 µM in test [7], 8.56 µM in [8], 12.2 µM in test [9] and 4.56 µM in test [10]. For the same molecule, the TGI is more than 100 µM in test [1]; 46.3 µM in [2]; more than 100 µM in test [3]; more than 100 µM in test [4]; more than 100 µM in test [5]; more than 100 µM in [6]. Also, the TGI in test [7], in test [8], in [9] and in test [10] was more than 100 µM each time.
With `O=C1NC(=NCCc2ccccn2)S/C1=C\c1ccc2ncccc2c1`, the GI50 was more than 21.4 µM in test [1]; 12.7 µM in test [2]; 8.29 µM in test [3]; 9.23 µM in [4]; 18.2 µM in test [5]; 7.91 µM in test [6]. Moreover, the GI50 is 15.1 µM in [7], 11.4 µM in test [8], 12.6 µM in test [9] and 8.27 µM in [10]. Besides, the TGI in test [1] was more than 25 µM; in [2] it was more than 25 µM; in test [3], more than 25 µM; in test [4] it was more than 25 µM; in [5], more than 25 µM; in test [6], 24.3 µM. Also, the TGI in test [7], in test [8], in [9] and in [10] was more than 25 µM each time.
For the molecule `CN(C)C=Nc1c(I)cc(I)c(CCC(=O)O)c1I`, the GI50 in test [1], in test [2], in [3], in test [4], in [5] and in [6] was more than 100 µM each time. The GI50 in test [7] was 91.5 µM; in test [8], more than 100 µM; in [9] it was more than 100 µM; in test [10], more than 100 µM. Further, the TGI in [1], in test [2], in test [3], in [4], in test [5] and in test [6] was more than 100 µM each time. The TGI in [7], in [8], in test [9] and in test [10] was more than 100 µM throughout.
For `COc1ccc(-c2[nH]nc(N)c2-c2cc(OC)c(OC)c(OC)c2)cc1`, the GI50 in test [1] was 0.0396 µM; in test [2], 0.0281 µM; in test [3] it was 0.0447 µM; in test [4], 0.0424 µM; in test [5] it was 0.0246 µM; in test [6] it was 0.0644 µM. The GI50 was 0.0367 µM in test [7], 0.0756 µM in [8], 0.0459 µM in test [9] and 0.0363 µM in test [10]. Moreover, the TGI in test [1] was 1.4 µM; in test [2], 3.46 µM; in [3], more than 100 µM; in [4], more than 100 µM; in [5] it was 9.79 µM; in test [6], 66.7 µM. Moreover, the TGI is more than 100 µM in [7], 33.3 µM in test [8], more than 100 µM in test [9] and more than 33.7 µM in test [10].
Take `COc1ccc(-c2cn(-c3cc(OC)c(OC)c(OC)c3)c(=O)[nH]2)cc1OC`: the GI50 in test [1], in test [2], in test [3], in [4], in test [5] and in test [6] was more than 100 µM in each case. The GI50 in test [7], in [8], in test [9] and in test [10] was more than 100 µM throughout. For the same molecule, the TGI in [1], in [2], in [3], in test [4], in [5] and in [6] was more than 100 µM throughout. In addition, the TGI in test [7], in test [8], in test [9] and in [10] was more than 100 µM each time.
With `CC(=O)N[C@@H](Cc1ccc(OP(=O)(O)O)cc1)C(=O)N[C@H]1CCC(=O)N2CCC[C@@H](C(=O)NCc3ccccc3)N2C1=O`, the GI50 in test [1], in test [2], in [3], in [4], in [5] and in [6] was more than 25 µM throughout. For the same molecule, the GI50 in [7], in test [8], in [9] and in [10] was more than 25 µM throughout. Besides, the TGI in [1], in test [2], in [3], in [4], in test [5] and in [6] was more than 25 µM throughout. The TGI in test [7], in [8], in test [9] and in test [10] was more than 25 µM throughout.
`NC(=O)c1cc(Br)ccc1NC(=O)/C=C/c1ccccc1`: the GI50 was 28.1 µM in test [1]; 1.96 µM in [2]; 2.39 µM in [3]; 1.81 µM in [4]; 1.09 µM in test [5]; 3.37 µM in test [6]. For the same molecule, the GI50 is 1.19 µM in [7], 2.85 µM in [8], 14.1 µM in [9] and 1.42 µM in test [10]. Moreover, the TGI was more than 100 µM in test [1]; more than 100 µM in [2]; more than 100 µM in [3]; more than 43.4 µM in test [4]; more than 100 µM in [5]; more than 100 µM in [6]. Besides, the TGI in [7] is more than 100 µM; in test [8] it was more than 39.4 µM; in [9] it was more than 100 µM; in test [10] it was more than 100 µM.
With `CC(=O)OCCCC#CC#Cc1cccc(=O)o1`, the GI50 in test [1] is 16.6 µM; in [2] it was 17.8 µM; in [3], 20.4 µM; in test [4], 23.9 µM; in test [5], 16 µM; in test [6], 3.52 µM. For the same molecule, the GI50 was 18.4 µM in [7], 19.4 µM in test [8], 29.4 µM in test [9] and 20 µM in test [10]. Further, the TGI in test [1] was 33.2 µM; in test [2] it was 36.5 µM; in test [3], 42.9 µM; in test [4], 54.3 µM; in test [5] it was 30.9 µM; in test [6] it was more than 100 µM. Besides, the TGI in test [7] worked out at 44.4 µM; in test [8], 41.1 µM; in test [9], 86.4 µM; in test [10], 42.2 µM.
On to `CNC(=O)c1cccc(C#Cc2cncnc2Nc2ccc(OCc3cccc(F)c3)c(Cl)c2)c1`, for which the GI50 in [1] is 9.15 µM; in [2] it was 10.7 µM; in test [3], 3.85 µM; in test [4], 4.47 µM; in test [5] it was 7.22 µM; in [6], 1.58 µM. Further, the GI50 is 7.49 µM in test [7], 4.54 µM in test [8], 7.3 µM in test [9] and 5.04 µM in [10]. For the same molecule, the TGI in test [1] was more than 25 µM; in test [2], more than 25 µM; in [3], 8.9 µM; in [4] it was 10.2 µM; in test [5] it was more than 19.4 µM; in test [6], more than 25 µM. Further, the TGI was more than 22.8 µM in test [7], 12.9 µM in test [8], more than 25 µM in test [9] and 12.9 µM in [10].
In the case of `CC1Cc2ccccc2N1C(=O)Cc1nc(N2CCOCC2)cc(=O)[nH]1` (stereo not given), the GI50 is 18.1 µM and 28.6 µM in test [1]; 13.8 µM and 27 µM in [2]; 17.3 µM and 24.5 µM in [3]; 21.8 µM and 45.9 µM in [4]; 20.2 µM and 47.6 µM in test [5]; 2.26 µM and 3.28 µM in [6]. In addition, the GI50 in [7] was 2.47 µM and 5.2 µM; in test [8] it was 18.1 µM and 19.9 µM; in test [9] it was 34.8 µM and 32 µM; in test [10], 17.2 µM and 32 µM. Besides, the TGI is more than 100 µM in test [1]; more than 100 µM in test [2]; more than 100 µM in [3]; more than 100 µM in [4]; 55.1 µM and > 100 µM in test [5]; more than 100 µM in [6]. The TGI in test [7], in test [8], in [9] and in [10] was more than 100 µM throughout.
As for `O=[N+]([O-])c1oc2ccc3ccccc3c2c1CCO`, the TGI was 1.24 µM in test [1]; 5.24 µM in test [2]; 7.29 µM in test [3]; 56.9 µM in [4]; 31.5 µM in test [5]; 3.89 µM in [6]. Also, the TGI turned out to be 87.7 µM in [7], 40.5 µM in test [8], 23.1 µM in test [9] and 0.819 µM in test [10].
For the molecule `Cc1ccccc1C(C(=O)NC1CCCCC1)N(C(=O)CNc1ncccc1F)c1cccc(F)c1` (stereo not given), the GI50 in [1] was more than 100 µM; in [2], more than 100 µM; in test [3] it was more than 100 µM; in [4], 27.6 µM; in test [5], more than 100 µM; in test [6], more than 100 µM. Besides, the GI50 was more than 100 µM in [7], 48.7 µM in test [8], 19 µM in test [9] and more than 100 µM in test [10]. The TGI in test [1], in test [2], in test [3], in test [4], in [5] and in [6] was more than 100 µM in each case. In addition, the TGI in test [7], in [8], in test [9] and in test [10] was more than 100 µM throughout.
`Cc1[nH]nc2ncc(C(=O)N3CCC[C@H]3c3ccc(Cl)cc3)cc12`: the GI50 in test [1] was more than 100 µM; in test [2], more than 100 µM; in test [3] it was more than 100 µM; in [4], more than 100 µM; in test [5] it was 51.6 µM; in [6], 61.2 µM. The GI50 in test [7] is 45.6 µM; in [8], more than 100 µM; in test [9], more than 100 µM; in test [10], more than 100 µM. Further, the TGI in [1], in test [2], in test [3], in test [4], in [5] and in test [6] was more than 100 µM each time. In addition, the TGI in [7], in test [8], in [9] and in test [10] was more than 100 µM in each case.
